Earlier results, collected in US20160206673A1, “Composition and Method for Improving Sexual Performance” (priority 2015, published 2016).

Key:
[1] = system: men with erectile dysfunction; settings: background evidence
[2] = system: men with erectile dysfunction; settings: oral medications

Row | Structure (SMILES) | effect on sexual function / erectile dysfunction [1] | side effects / safety [1] | duration of erection helping effects [2]
1 | C[C@]12CC[C@H](O)CC1=CC[C@@H]1[C@@H]2CC[C@]2(C)C(=O)CC[C@@H]12 [DHEA, dehydroepiandrosterone] | increases libido in women and helps erectile dysfunction in men | – | –
2 | N=C(N)NCCC[C@H](N)C(=O)O [L-arginine] | improves erectile dysfunction | nausea, cramps and diarrhea | –
3 | COC(=O)[C@@H]1[C@H]2C[C@H]3c4[nH]c5ccccc5c4CCN3C[C@@H]2CC[C@@H]1O [Yohimbine] | can improve sexual dysfunction associated with a drug used to treat depression | increased blood pressure, fast or irregular heartbeat, and anxiety | –
4 | CCCc1nn(C)c2c(=O)[nH]c(-c3cc(S(=O)(=O)N4CCN(C)CC4)ccc3OCC)nc12 [sildenafil] | – | – | up to eight
